Assay: Solubility in methylene chloride
Format: physicochemical
Conditions: in methylene chloride at about 25° C.
Experimental: In methylene chloride, on the other hand, the DMSO solvate according to the present invention is readily soluble at temperatures in the range as indicated in the preceding paragraph (solubility about 70 g/l at about 25° C.). […] Therefore dissolving the DMSO solvate methylene chloride results in that the compound of formula (I) precipitates from this solution. This precipitate of the compound of formula (I) is generally again of greater purity than the DMSO solvate dissolved, and of such a particle size, that it can very fast be filtered or centrifuged off from the solvent. Furthermore, the precipitate of compound of formula (I) is generally in substantially crystalline form when precipitated from methylene chloride. More particularly, the precipitate comprises the compound of formula (I) at least partially in form of single-crystals.

With CC(C)(C)OC(=O)N1CC[C@@H](N2CC/C(=C\C3=C(C(=O)OC(c4ccccc4)c4ccccc4)N4C(=O)[C@@H](NC(=O)/C(=N\OC(c5ccccc5)(c5ccccc5)c5ccccc5)c5nsc(N)n5)[C@H]4SC3)C2=O)C1 [DMSO solvate] as the compound, how does the solubility read?
Its solubility is “about 70 g/l”.

For CC(C)(C)OC(=O)N1CC[C@@H](N2CC/C(=C\C3=C(C(=O)OC(c4ccccc4)c4ccccc4)N4C(=O)[C@@H](NC(=O)/C(=N\OC(c5ccccc5)(c5ccccc5)c5ccccc5)c5nsc(N)n5)[C@H]4SC3)C2=O)C1 [compound of formula (I), (6R,7R)-7-{2-(5-Amino-[1,2,4]thiadiazol-3-yl)-2-[(Z)-trityloxyimino]-acetylamino}-3-[(R)-1′-tert-butoxycarbonyl-2-oxo-[1,3′]bipyrrolidinyl-3E-ylidenemethyl]-8-oxo-5-thia-1-aza-bicyclo[4.2.0]oct-2-ene-2-carboxylic acid benzhydryl ester], which solubility is on record?
The solubility was “about 8 g/l”.

— US8865697B2, “Crystalline (6R,7R)-7-{2-(5-amino-[1,2,4] thiadiazol-3-yl)-2-[(Z)-trityloxyimino]-acetylamino}-3-[(R)-1′-tert-butoxycarbonyl-2-oxo-[1,3′]bipyrrolidinyl-(3E)-ylidenemethyl]-8-oxo-5-thia-1-aza-bicyclo[4.2.0]oct-2-ene-2-carboxylic acid benzhydryl ester; its manufacture and use” (Basilea Pharmaceutica AG, priority 2008, dated 2014)
